# Test system: diabetic Zucker (fa/fa) rats
# Experiment: Glutaminyl thiazolidine and Metformin alone or in combination, glycemic control in diabetic Zucker (fa/fa) rats
# Format: in vivo, rat
# Conditions: b.i.d. oral; for reactive and absolute G-AUC: p<0.05 vs. Control; for glucose tolerance curve in the OGTT: vs. Control
# Procedure: Ten or eleven weeks old male Zucker (fa/fa) rats were purchased from Charles River (Sulzfeld, Germany). Animals were kept under standardized semi-barrier conditions with controlled temperature (22±2° C.) on a 12/12 hours light/dark cycle (light on at 06:00 a.m.). Standard pelleted chow (ssniff®, Soest, Germany) and tap water acidified with HCl were allowed ad libitum. At the age of 12 weeks the animals (N=42) were divided in random order into six experimental groups to be medicated. Definition of the Experimental Groups for the Medications (GT=glutaminyl thiazolidine):
# The single or combined doses per kg b.w. were solved in 5 mL dist. water for oral administration.
# The study was started with the 12 to 13 weeks old Zucker (fa/fa) rats. At the beginning of the study an OGTT was performed (2 g glucose/kg body weight (b.w.); administration volume: 5 mL/kg of a 40% solution; B. Braun Melsungen, Melsungen, Germany) after a 16 h fast. […] Dosing was performed at t=5 min before OGTT by gavage.
# Blood samples were taken from tail veins to measure blood glucose and serum insulin at −15, ±0 min, 15, 30, 60, 90, 120 and 180 min (the latter time without insulin samples) with respect to time of glucose administration.
# After the first OGTT the animals in the groups were dosed twice daily with the respective drugs at 08:00 AM and at 04:00 PM, respectively:
# During the two weeks of medication morning blood glucose was measured before the 08:00 AM medication at Monday, Wednesday and Friday.
# Food intake was determined every day during the time of medication.
# All the animals were weighted three times per week at 7:30 AM.
# A second OGTT was performed after two weeks of medication (Day 15). The food was withdrawn at 04:00 PM the day before (16 h fast). The OGTT was performed with pre-medication at −5 min and oral glucose loading at ±0 min. Blood samples were taken from tail veins to measure blood glucose, and serum insuline at −15, ±0 min, 15, 30, 60, 90, 120 and 180 min (the latter time without insulin samples).
# Glycated hemoglobin was measured before (Day −7) and on Day 18.
# Glucose-For determination of glucose 20 μL blood were collected at −15, ±0 min (before OGTT) and 15, 30, 60, 90, 120 and 180 min post OGTT.
# Insulin-Insulin concentrations were assayed by the antibody RIA method (Linco Research, Inc. St. Charles, Mo., USA).
# Glycated haemoglobin-Percentage of glycated hemoglobin A (HbA1c) was estimated with the “DCA 2000R Hämoglobin A1c-Reagenz kit”(Bayer Vital GmbH, Fernwald, Germany).
# The body weight was measured using a platform balance (Scaltec, Heiligenstadt, Germany).
# Mixed venous blood samples from the tails were collected into 20 μL glass capillaries, which were placed in standard tubes filled with 1 ml solution for hemolysis (blood glucose measurement) and in sample tubes for serum insulin (50 μL blood).
# Raw data of glucose analysis were provided by IDK to probiodrug in Excel format as soon as possible. Data for each drug and each parameter (glucose, insulin) were summarized by descriptive statistics (mean, SEM). […] Changes from baseline were calculated and summarized by descriptive statistic.
# [1] = GT 60 mg/kg b.w. and/or Metformin 125 mg/kg b.w. (Met-low)
# [2] = Metformin 300 mg/kg b.w. (Met-high) with or without GT 60 mg/kg b.w.
structure (smiles),measurement,setting,value
"CN(C)C(=N)N=C(N)N [Metformin, 1,1-Dimethylbiguanidine]",reactive and absolute G-AUC,[1],significantly reduced
same,glucose tolerance curve in the OGTT,[1],significantly improved glucose tolerance curves
same,reactive and absolute G-AUC,[2],once more lowered
same,glucose tolerance curve in the OGTT,[2],further improvement of glucose tolerance curve

# — US20060287251A1, “Combination therapy for glycaemic control” (priority 2003, published 2006)
